Source: patent US11072588B2, “Barbituric acid derivatives comprising cationic and lipophilic groups” (UNIVERSITETET I TROMSØ—NORGES ARKTISKE UNIVERSITET, priority 2017, dated 2021)
≈ marks a conversion by molar mass, not a printed value.

Tests used:
[1] = test system: panel of 30 multi-resistant clinical isolates of Gram-positive and Gram-negative bacteria; test: MIC screening, ranges over the panel of clinical isolates; type: cell-based; details: read-out: MIC values against all the 30 multi-resistant clinical isolates
Method: (§1) Working solutions of the test derivatives were prepared with up to 100% DMSO and stored at −20° C. If necessary, the solutions were heated to 40-80° C. before testing to facilitate complete dissolution. Double-distilled water was used in all dilutions prepared. […] A microdilution susceptibility test was used for MIC determination according to Clinical and Laboratory Standards Institute, “Methods for Dilution Antimicrobial Sisceptibility Tests for Bacteria That Graw Aerobically”, Approved Standard M07-A9, edition 2012, with modifications as described by Igumnova et al (Bioorg Med Chem, 2016, 24 (22), 5884-5894).
(§2) Briefly, the bacterial inoculum was adjusted to approximately 2.5-3×10^4 cells/mL in Mueller-Hinton broth (MHB, Difco Laboratories, USA), and incubated in a ratio of 1:1 with test derivatives in polystyrene 96-well flat-bottom microplates (NUNC, Roskilde, Denmark). Positive growth control (without test derivatives) and negative control (without bacteria) were included. The reference antibiotic was oxytetracycline hydrochloride (Sigma Aldrich, Saint Louis, Mo., USA). The microplates were incubated in an EnVision microplate reader (Perkin-Elmer, Turku, Finland) placed in an incubator set to 35° C. for 48 h. The MIC value was defined as the lowest concentration of derivative resulting in no bacterial growth as determined by OD600 measurement. All derivatives were tested in three parallels.
(§3) The MIC was determined as explained above with some exceptions; working solutions of test derivatives were prepared from concentrated DMSO stocks stored at room temperature, the density of the bacterial inoculum was increased 40× to 1-1.2×10^6 cells/mL, enterococci were incubated in Brain Heart Infusion broth (BHIB, Difco Laboratories, USA), the microplates were incubated for 24 h, and the derivatives were tested in four parallels.

[2] = test system: Corynebacterium glutamicum ATCC 13032; test: MIC assay, antibiotic susceptible reference strain; type: cell-based; details: Corynebacterium glutamicum, ATCC13032, read-out: Antimicrobial activity (MIC) C. g
How it was run: (§4)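 Broth microdilution followed CLSI M07-A9 with modifications: inoculum ~2.5-3×10^4 cells/mL in Mueller-Hinton broth, mixed 1:1 with test derivative, incubated 48 h at 35 °C. MIC was the lowest concentration giving no growth by OD600, tested in three parallels, with oxytetracycline as reference antibiotic.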

[3] = test system: Escherichia coli ATCC 25922; test: MIC assay, antibiotic susceptible reference strain; type: cell-based; details: Escherichia coli, ATCC25922, read-out: Antimicrobial activity (MIC) E. c
How it was run: as §4

[4] = test system: Pseudomonas aeruginosa PA01, DSM 19880 (ATCC 15692); test: MIC assay, antibiotic susceptible reference strain; type: cell-based; details: Pseudomonas aeruginosa, read-out: Antimicrobial activity (MIC) P. a
How it was run: as §4

[5] = test system: Staphylococcus aureus ATCC 9144; test: MIC assay, antibiotic susceptible reference strain; type: cell-based; details: Staphylococcus aureus, ATCC9144, read-out: Antimicrobial activity (MIC) S. a
How it was run: as §4

E. coli 50639799 = test: MIC, multi-resistant clinical isolate; type: cell-based, Escherichia coli
Method: as §1, §2, §3

E. coli 50857972 = test: MIC, multi-resistant clinical isolate; type: cell-based, Escherichia coli
Method: as §1, §2, §3

E. faecium TUH50-22 = test: MIC, multi-resistant clinical isolate; type: cell-based, Enterococcus faecium
Method: as §1, §2, §3

E. faecium K36-18 = test: MIC, multi-resistant clinical isolate; type: cell-based, Enterococcus faecium
Method: as §1, §2, §3

E. faecium 50673722 = test: MIC, multi-resistant clinical isolate; type: cell-based, Enterococcus faecium
Method: as §1, §2, §3

E. faecium 50758899 = test: MIC, multi-resistant clinical isolate; type: cell-based, Enterococcus faecium
Method: as §1, §2, §3

E. faecium 50901530 = test: MIC, multi-resistant clinical isolate; type: cell-based, Enterococcus faecium
Method: as §1, §2, §3

P. aeruginosa K44-24 = test: MIC, multi-resistant clinical isolate; type: cell-based, Pseudomonas aeruginosa
Method: as §1, §2, §3

P. aeruginosa 50692520 = test: MIC, multi-resistant clinical isolate; type: cell-based, Pseudomonas aeruginosa
Method: as §1, §2, §3

P. aeruginosa 50692172 = test: MIC, multi-resistant clinical isolate; type: cell-based, Pseudomonas aeruginosa
Method: as §1, §2, §3

P. aeruginosa K34-73 = test: MIC, multi-resistant clinical isolate; type: cell-based, Pseudomonas aeruginosa; details: P. aeruginosa K34-73
Method: as §1, §2, §3

P. aeruginosa K34-7 = test: MIC, multi-resistant clinical isolate; type: cell-based, Pseudomonas aeruginosa
Method: as §1, §2, §3

S. epidermidis = test: Anti-biofilm activity (inhibition of biofilm formation); type: cell-based; details: Staphylococcus epidermidis, read-out: Anti-biofilm IC50
K. pneumoniae K47-25 = test: MIC, multi-resistant clinical isolate; type: cell-based, Klebsiella pneumoniae; details: K. pneumoniae K47-25, resistant to colistin
Method: as §1, §2, §3

K. pneumoniae K66-45 = test: MIC, multi-resistant clinical isolate; type: cell-based, Klebsiella pneumoniae
Method: as §1, §2, §3

K. pneumoniae 50531633 = test: MIC, multi-resistant clinical isolate; type: cell-based, Klebsiella pneumoniae; details: K. pneumoniae 50531633, resistant to colistin
Method: as §1, §2, §3

K. pneumoniae 50667959 = test: MIC, multi-resistant clinical isolate; type: cell-based, Klebsiella pneumoniae
Method: as §1, §2, §3

K. pneumoniae 50625602 = test: MIC, multi-resistant clinical isolate; type: cell-based, Klebsiella pneumoniae
Method: as §1, §2, §3

[6] = Escherichia coli, read-out: Antimicrobial activity (MIC)
[7] = Enterococcus faecium, read-out: Antimicrobial activity (MIC)
[8] = Pseudomonas aeruginosa, read-out: Antimicrobial activity (MIC)
[9] = Klebsiella pneumoniae, read-out: Antimicrobial activity (MIC)

Compound: N=C(N)NCCCCN1C(=O)N(CCCCNC(=N)N)C(=O)C(Cc2ccc(F)c3ccccc23)(Cc2ccc(F)c3ccccc23)C1=O [8(v), 1,1′-(4,4′-(5,5-bis((4-fluoronaphthalen-1-yl)methyl)-2,4,6-trioxodihydropyrimidine-1,3(2H,4H)-diyl)bis(butane-4,1-diyl))diguanidine]
- MIC [1]: 2 to 16 µg/mL (≈ 2.98 to 23.9 µM)
- MIC [2]: 0.25 µg/mL (≈ 0.373 µM)
- MIC [3]: 1 µg/mL (≈ 1.49 µM)
- MIC [4]: 4 µg/mL (≈ 5.96 µM)
- MIC [5]: 1 µg/mL (≈ 1.49 µM)
- MIC (E. coli 50639799; [6]): 4 µg/mL (≈ 5.96 µM)
- selectivity index (EC50/MIC) (E. coli 50639799; RBC EC50 / MIC): (22)
- MIC (E. coli 50857972; [6]): 4 µg/mL (≈ 5.96 µM)
- selectivity index (EC50/MIC) (E. coli 50857972; RBC EC50 / MIC): (22)
- MIC (E. faecium TUH50-22; Enterococcus faecium, TUH5022, read-out: Antimicrobial activity (MIC)): 4 µg/mL (≈ 5.96 µM)
- selectivity index (EC50/MIC) (E. faecium TUH50-22; RBC EC50 / MIC): (22)
- MIC (E. faecium K36-18; Enterococcus faecium, K3618, read-out: Antimicrobial activity (MIC)): 4 µg/mL (≈ 5.96 µM)
- selectivity index (EC50/MIC) (E. faecium K36-18; RBC EC50 / MIC, E. faecium K36-18): (22)
- MIC (E. faecium 50673722; [7]): 4 µg/mL (≈ 5.96 µM)
- selectivity index (EC50/MIC) (E. faecium 50673722; RBC EC50 / MIC): (22)
- MIC (E. faecium 50758899; [7]): 4 µg/mL (≈ 5.96 µM)
- selectivity index (EC50/MIC) (E. faecium 50758899; RBC EC50 / MIC): (22)
- MIC (E. faecium 50901530; [7]): 4 µg/mL (≈ 5.96 µM)
- selectivity index (EC50/MIC) (E. faecium 50901530; RBC EC50 / MIC): (22)
- MIC (P. aeruginosa K44-24; Pseudomonas aeruginosa, K4424, read-out: Antimicrobial activity (MIC)): 16 µg/mL (≈ 23.9 µM)
- selectivity index (EC50/MIC) (P. aeruginosa K44-24; RBC EC50 / MIC): (6)
- MIC (P. aeruginosa 50692520; [8]): 16 µg/mL (≈ 23.9 µM)
- selectivity index (EC50/MIC) (P. aeruginosa 50692520; RBC EC50 / MIC): (6)
- MIC (P. aeruginosa 50692172; [8]): 16 µg/mL (≈ 23.9 µM)
- selectivity index (EC50/MIC) (P. aeruginosa 50692172; RBC EC50 / MIC): (6)
- MIC (P. aeruginosa K34-73; Pseudomonas aeruginosa, K3473, read-out: Antimicrobial activity (MIC)): 8 µg/mL (≈ 11.9 µM)
- selectivity index (EC50/MIC) (P. aeruginosa K34-73; RBC EC50 / MIC): (11)
- MIC (P. aeruginosa K34-7; Pseudomonas aeruginosa, K347, read-out: Antimicrobial activity (MIC)): 16 µg/mL (≈ 23.9 µM)
- selectivity index (EC50/MIC) (P. aeruginosa K34-7; RBC EC50 / MIC, P. aeruginosa K34-7): (6)
- IC50 (S. epidermidis): 1 µg/mL (≈ 1.49 µM)
- MIC (K. pneumoniae K47-25; Klebsiella pneumoniae, K4725, 24 h, read-out: Antimicrobial activity (MIC)): 8 µg/mL (≈ 11.9 µM)
- selectivity index (EC50/MIC) (K. pneumoniae K47-25; RBC EC50 / MIC): (11)
- MIC (K. pneumoniae K66-45; Klebsiella pneumoniae, K6645, read-out: Antimicrobial activity (MIC)): 4 µg/mL (≈ 5.96 µM)
- selectivity index (EC50/MIC) (K. pneumoniae K66-45; RBC EC50 / MIC, K. pneumoniae K66-45): (22)
- MIC (K. pneumoniae 50531633; Klebsiella pneumoniae, 24 h, read-out: Antimicrobial activity (MIC)): 8 µg/mL (≈ 11.9 µM)
- selectivity index (EC50/MIC) (K. pneumoniae 50531633; RBC EC50 / MIC): (11)
- MIC (K. pneumoniae 50667959; [9]): 4 µg/mL (≈ 5.96 µM)
- selectivity index (EC50/MIC) (K. pneumoniae 50667959; RBC EC50 / MIC): (22)
- MIC (K. pneumoniae 50625602; [9]): 16 µg/mL (≈ 23.9 µM)
- selectivity index (EC50/MIC) (K. pneumoniae 50625602; RBC EC50 / MIC): (6)
